US10131652B2, “Pyrimidinyloxy benzene derivatives as herbicides” (E. I. DU PONT DE NEMOURS AND COMPANY, priority 2014, dated 2018)
Read-outs that look alike come from different tables or passages of the source.

Tests used:
Test in all cases: Test E pre-/postemergence plant response
Assay type in all cases: in vivo
[1] = test system: field poppy (Papaver rhoeas); conditions: scale 0 to 100, read-out: Plant response rating, Field Poppy; for pest or weed control at 16 g/ha: 16 g ai/ha; for pest or weed control at 31 g/ha: 31 g ai/ha; for pest or weed control at 62 g/ha: 62 g ai/ha; for pest or weed control at 125 g/ha: 125 g ai/ha
Summary of the method: (§1)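 Pre-emergence: seeds sown in silt loam soil and sprayed with test chemicals in a non-phytotoxic solvent/surfactant mix. Post-emergence: plants at 2–18 cm (1- to 4-leaf stage) in peat/vermiculite medium treated with the same formulation. Visual rating versus controls after 7–21 days, 0 (no effect) to 100 (complete control).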

[2] = test system: chickweed (common chickweed, Stellaria media); conditions: scale 0 to 100, read-out: Plant response rating, Chickweed; for pest or weed control at 16 g/ha: 16 g ai/ha; for pest or weed control at 31 g/ha: 31 g ai/ha; for pest or weed control at 62 g/ha: 62 g ai/ha; for pest or weed control at 125 g/ha: 125 g ai/ha
Summary of the method: as §1

[3] = test system: wild mustard (Sinapis arvensis); conditions: Brassica, scale 0 to 100, read-out: Plant response rating, Mustard, Wild; for pest or weed control at 16 g/ha: 16 g ai/ha; for pest or weed control at 31 g/ha: 31 g ai/ha; for pest or weed control at 62 g/ha: 62 g ai/ha; for pest or weed control at 125 g/ha: 125 g ai/ha
Summary of the method: as §1

[4] = test system: chamomile (scentless chamomile, Matricaria inodora); conditions: Tripleurospermum inodorum, scale 0 to 100, read-out: Plant response rating, Chamomile; for pest or weed control at 16 g/ha: 16 g ai/ha; for pest or weed control at 31 g/ha: 31 g ai/ha; for pest or weed control at 62 g/ha: 62 g ai/ha; for pest or weed control at 125 g/ha: 125 g ai/ha
Summary of the method: as §1

[5] = test system: wild buckwheat (Polygonum convolvulus); conditions: Fallopia convolvulus, scale 0 to 100, read-out: Plant response rating, Buckwheat, Wild; for pest or weed control at 16 g/ha: 16 g ai/ha; for pest or weed control at 31 g/ha: 31 g ai/ha; for pest or weed control at 62 g/ha: 62 g ai/ha; for pest or weed control at 125 g/ha: 125 g ai/ha
Summary of the method: as §1

[6] = test system: galium (catchweed bedstraw, Galium aparine); conditions: scale 0 to 100, read-out: Plant response rating, Galium; for pest or weed control at 16 g/ha: 16 g ai/ha; for pest or weed control at 31 g/ha: 31 g ai/ha; for pest or weed control at 62 g/ha: 62 g ai/ha; for pest or weed control at 125 g/ha: 125 g ai/ha
Summary of the method: as §1

[7] = test system: oilseed rape (Brassica napus); conditions: scale 0 to 100, read-out: Plant response rating, Oilseed Rape; for plant injury at 16 g/ha: 16 g ai/ha; for plant injury at 31 g/ha: 31 g ai/ha; for plant injury at 62 g/ha: 62 g ai/ha; for plant injury at 125 g/ha: 125 g ai/ha
Summary of the method: as §1

[8] = test system: field violet (Viola arvensis); conditions: scale 0 to 100, read-out: Plant response rating, Field Violet; for pest or weed control at 16 g/ha: 16 g ai/ha; for pest or weed control at 31 g/ha: 31 g ai/ha; for pest or weed control at 62 g/ha: 62 g ai/ha; for pest or weed control at 125 g/ha: 125 g ai/ha
Summary of the method: as §1

[9] = test system: speedwell (bird's-eye speedwell, Veronica persica); conditions: scale 0 to 100, read-out: Plant response rating, Speedwell; for pest or weed control at 16 g/ha: 16 g ai/ha; for pest or weed control at 62 g/ha: 62 g ai/ha; for pest or weed control at 125 g/ha: 125 g ai/ha
Summary of the method: as §1

[10] = test system: spring barley (Hordeum vulgare); conditions: for plant injury at 16 g/ha: 16 g ai/ha; for plant injury at 31 g/ha: 31 g ai/ha; for plant injury at 62 g/ha: 62 g ai/ha; for plant injury at 125 g/ha: 125 g ai/ha
Summary of the method: as §1

[11] = test system: spring wheat (Triticum aestivum); conditions: scale 0 to 100, read-out: Plant response rating, Wheat, Spring; for plant injury at 16 g/ha: 16 g ai/ha; for plant injury at 62 g/ha: 62 g ai/ha; for plant injury at 125 g/ha: 125 g ai/ha
Summary of the method: as §1

[12] = post-emergence, 31 g ai/ha, Postemergence
[13] = post-emergence, Postemergence, scale 0 to 100, read-out: Plant response rating, Barley, Spring
[14] = pre-emergence, Preemergence, scale 0 to 100, read-out: Plant response rating, Barley, Spring

FC(F)c1cc(-c2ccccc2Oc2ncc(Br)cn2)no1 [Compound 62, 5-bromo-2-[2-[5-(difluoromethyl)-3-isoxazolyl]phenoxy]pyrimidine]
pest or weed control at 16 g/ha ([1]; post-emergence, Postemergence): 40% | pest or weed control at 31 g/ha ([1]; post-emergence, Postemergence): 55% | pest or weed control at 62 g/ha ([1]; post-emergence, Postemergence): 70% | pest or weed control at 125 g/ha ([1]; post-emergence, Postemergence): 75% | pest or weed control at 16 g/ha ([1]; pre-emergence, Preemergence): 65% | pest or weed control at 31 g/ha ([1]; pre-emergence, Preemergence): 75% | pest or weed control at 62 g/ha ([1]; pre-emergence, Preemergence): 100% | pest or weed control at 125 g/ha ([1]; pre-emergence, Preemergence): 100% | pest or weed control at 16 g/ha ([2]; post-emergence, Postemergence): 65% | pest or weed control at 31 g/ha ([2]; post-emergence, Postemergence): 70% | pest or weed control at 62 g/ha ([2]; post-emergence, Postemergence): 80% | pest or weed control at 125 g/ha ([2]; post-emergence, Postemergence): 90% | pest or weed control at 16 g/ha ([2]; pre-emergence, Preemergence): 65% | pest or weed control at 31 g/ha ([2]; pre-emergence, Preemergence): 75% | pest or weed control at 62 g/ha ([2]; pre-emergence, Preemergence): 100% | pest or weed control at 125 g/ha ([2]; pre-emergence, Preemergence): 100% | pest or weed control at 16 g/ha ([3]; post-emergence, Postemergence): 75% | pest or weed control at 31 g/ha ([3]; post-emergence, Postemergence): 100% | pest or weed control at 62 g/ha ([3]; post-emergence, Postemergence): 100% | pest or weed control at 125 g/ha ([3]; post-emergence, Postemergence): 100% | pest or weed control at 16 g/ha ([3]; pre-emergence, Preemergence): 25% | pest or weed control at 31 g/ha ([3]; pre-emergence, Preemergence): 80% | pest or weed control at 62 g/ha ([3]; pre-emergence, Preemergence): 95% | pest or weed control at 125 g/ha ([3]; pre-emergence, Preemergence): 100% | pest or weed control at 16 g/ha ([4]; post-emergence, Postemergence): 0% | pest or weed control at 31 g/ha ([4]; post-emergence, Postemergence): 5% | pest or weed control at 62 g/ha ([4]; post-emergence, Postemergence): 5% | pest or weed control at 125 g/ha ([4]; post-emergence, Postemergence): 10% | pest or weed control at 16 g/ha ([4]; pre-emergence, Preemergence): 0% | pest or weed control at 31 g/ha ([4]; pre-emergence, Preemergence): 65% | pest or weed control at 62 g/ha ([4]; pre-emergence, Preemergence): 60% | pest or weed control at 125 g/ha ([4]; pre-emergence, Preemergence): 65% | pest or weed control at 16 g/ha ([5]; post-emergence, Postemergence): 75% | pest or weed control at 31 g/ha ([5]; post-emergence, Postemergence): 80% | pest or weed control at 62 g/ha ([5]; post-emergence, Postemergence): 95% | pest or weed control at 125 g/ha ([5]; post-emergence, Postemergence): 100% | pest or weed control at 16 g/ha ([5]; pre-emergence, Preemergence): 25% | pest or weed control at 31 g/ha ([5]; pre-emergence, Preemergence): 35% | pest or weed control at 62 g/ha ([5]; pre-emergence, Preemergence): 80% | pest or weed control at 125 g/ha ([5]; pre-emergence, Preemergence): 100% | pest or weed control at 16 g/ha ([6]; post-emergence, Postemergence): 70% | pest or weed control at 31 g/ha ([6]; post-emergence, Postemergence): 70% | pest or weed control at 62 g/ha ([6]; post-emergence, Postemergence): 75% | pest or weed control at 125 g/ha ([6]; post-emergence, Postemergence): 90% | pest or weed control at 16 g/ha ([6]; pre-emergence, Preemergence): 5% | pest or weed control at 31 g/ha ([6]; pre-emergence, Preemergence): 60% | pest or weed control at 62 g/ha ([6]; pre-emergence, Preemergence): 65% | pest or weed control at 125 g/ha ([6]; pre-emergence, Preemergence): 100% | plant injury at 16 g/ha ([7]; post-emergence, Postemergence): 65% | plant injury at 31 g/ha ([7]; post-emergence, Postemergence): 80% | plant injury at 62 g/ha ([7]; post-emergence, Postemergence): 80% | plant injury at 125 g/ha ([7]; post-emergence, Postemergence): 100% | plant injury at 16 g/ha ([7]; pre-emergence, Preemergence): 10% | plant injury at 31 g/ha ([7]; pre-emergence, Preemergence): 25% | plant injury at 62 g/ha ([7]; pre-emergence, Preemergence): 65% | plant injury at 125 g/ha ([7]; pre-emergence, Preemergence): 100% | pest or weed control at 16 g/ha ([8]; post-emergence, Postemergence): 60% | pest or weed control at 31 g/ha ([8]; post-emergence, Postemergence): 65% | pest or weed control at 62 g/ha ([8]; post-emergence, Postemergence): 70% | pest or weed control at 125 g/ha ([8]; post-emergence, Postemergence): 85% | pest or weed control at 16 g/ha ([8]; pre-emergence, Preemergence): 0% | pest or weed control at 31 g/ha ([8]; pre-emergence, Preemergence): 10% | pest or weed control at 62 g/ha ([8]; pre-emergence, Preemergence): 35% | pest or weed control at 125 g/ha ([8]; pre-emergence, Preemergence): 100% | pest or weed control at 16 g/ha ([9]; post-emergence, Postemergence): 70% | pest or weed control at 31 g/ha [9, 12]: 95% | pest or weed control at 62 g/ha ([9]; post-emergence, Postemergence): 100% | pest or weed control at 125 g/ha ([9]; post-emergence, Postemergence): 100% | pest or weed control at 16 g/ha ([9]; pre-emergence, Preemergence): 95% | pest or weed control at 62 g/ha ([9]; pre-emergence, Preemergence): 95% | pest or weed control at 125 g/ha ([9]; pre-emergence, Preemergence): 100% | plant injury at 16 g/ha [10, 13]: 10% | plant injury at 31 g/ha [10, 13]: 15% | plant injury at 62 g/ha [10, 13]: 20% | plant injury at 125 g/ha ([10]; post-emergence, Postemergence, scale 0 to 100 (0 no effect, 100 complete control), read-out: Plant response rating, Barley, Spring): 25% | plant injury at 16 g/ha [10, 14]: 0% | plant injury at 31 g/ha [10, 14]: 0% | plant injury at 62 g/ha [10, 14]: 0% | plant injury at 125 g/ha [10, 14]: 0% | plant injury at 16 g/ha ([11]; post-emergence, Postemergence): 5% | plant injury at 31 g/ha [11, 12]: 20% | plant injury at 62 g/ha ([11]; post-emergence, Postemergence): 25% | plant injury at 125 g/ha ([11]; post-emergence, Postemergence): 40% | plant injury at 16 g/ha ([11]; pre-emergence, Preemergence): 0% | plant injury at 62 g/ha ([11]; pre-emergence, Preemergence): 0% | plant injury at 125 g/ha ([11]; pre-emergence, Preemergence): 10%
